The record followed here is PMC9851200, “Multiparameter phenotypic screening for endogenous TFEB and TFE3 translocation identifies novel chemical series modulating lysosome function” (Autophagy, 2022).

“Also recorded” adds a separate entry of the source. Like-named read-outs stand apart in the source and are kept apart here. A value given as a limit tells only on which side of the number the result lay.

Series [1] concerns SH-SY5Y cells.
Source text: The PKIS2 Library was supplied by The Structural Genomics Consortium at the University of North Carolina at Chapel Hill.
The subject of the next series is endogenous TFEB. Briefly: TFEB nuclear translocation, immunocytochemistry high-content imaging. The class given is cell-based. Conditions: for TFEB %: PKIS2 primary screening.
The test system of another series is endogenous TFE3. Nature of the series: TFE3 nuclear translocation, immunocytochemistry high-content imaging. Conditions: for TFE3 %: PKIS2 primary screening; for Best-Fit Values Span: TFE3 assay concentration response; for Best-Fit Values Span / EC50: 24 h; for EC50: TFE3 assay, read-out: Best-Fit Values EC50 (converted); for Summary: activity in TFE3 assays compared with original NK-140, OT activity. The series is classed as cell-based.

Series [2] relates to SH-SY5Y cells. Nature of the series: AK (adenylate kinase) release ToxiLight cytotoxicity assay. The conditions noted are these: for Cellular toxicity (AK release and nuclear count, in words): SH-SY5Y, 24 h treatment; for AK: PKIS2 primary screening.
Procedure: Total cell lysis with 5 µL 5% Triton-X 100 (Sigma-Aldrich, T8787) is used as a positive control for the assay and toxicity is expressed as a percentage of luminescence under DMSO conditions.
The subject of series [3] is SH-SY5Y cells. Nature of the series: Nuclear count from microscopy images (cellular growth and toxicity). The conditions noted are these: PKIS2 primary screening.
Where [4] appears, read: PKIS2 primary screening, DQ Red BSA intensity.
Setting [5] is: PKIS2 primary screening, DQ Red BSA spot count.
Setting [6] is: SH-SY5Y, concentration-dependent.

With `CC(=O)Nc1ccc(C(=O)Nc2ccccc2N)cc1` [CI-994, Tacedinaline, reference compound], in the series with SH-SY5Y cells [1] (SH-SY5Y, 24 h treatment), the “DQ Red BSA signal (in words)” value is reported as “robustly increase DQ Red BSA puncta signal” and the “DQ Red BSA spot count / active lysosome count (in words)” value was “increases”.
Regarding `O=C1NCCCc2c1oc1ccc(O)cc21` [CID755673, reference compound], in the series with endogenous TFEB, the “TFEB translocation (in words)” value was “no TFEB and TFE3 translocation; also recorded: no effect across these assays”. The “TFE3 translocation (in words)” value in the series on endogenous TFE3 is “no TFEB and TFE3 translocation; also recorded: no effect across these assays”. Further, the “DQ Red BSA signal (in words)” value in the series on SH-SY5Y cells [1] is “no TFEB and TFE3 translocation, alteration in DQ Red BSA signal or toxicity; also recorded: no effect across these assays”. Besides, the “Cellular toxicity (AK release and nuclear count, in words)” value in the series with SH-SY5Y cells [2] was “no TFEB and TFE3 translocation, alteration in DQ Red BSA signal or toxicity; also recorded: no effect across these assays”.
With `O=C(Nc1ccc(CN2CCOCC2)cc1)c1ccc(-c2cccc(Cl)c2)o1` [CID2011756, reference compound], the “TFEB translocation (in words)” value with endogenous TFEB was “some TFEB and TFE3 translocation only at 20 µM; also recorded: induced TFEB and TFE3 translocation only alongside marked lysosomal and cellular toxicity at 20 µM”. Also, the “TFE3 translocation (in words)” value with endogenous TFE3 was “some TFEB and TFE3 translocation only at 20 µM; also recorded: induced TFEB and TFE3 translocation only alongside marked lysosomal and cellular toxicity at 20 µM”. The “DQ Red BSA signal (in words)” value with SH-SY5Y cells [1] is “some reduction of DQ Red BSA signal”. Besides, in the series with SH-SY5Y cells [1] (human), the “Lysosomal toxicity (in words)” value was “marked lysosomal and cellular toxicity at 20 µM”. Besides, the “Cellular toxicity (AK release and nuclear count, in words)” value in the series with SH-SY5Y cells [2] was “marked lysosomal and cellular toxicity at 20 µM”.
In the series on endogenous TFEB, `Clc1cc(Cl)cc(Nc2ccnc(Nc3cc(Cl)cc(Cl)c3)n2)c1` [GSK175726] registered a TFEB % of 3.77%. The compound also gave a TFE3 % in the series with endogenous TFE3 of 10.08%. Further, in the series with SH-SY5Y cells [1] (setting [4]), the “DQ Intensity” value worked out at 98.51. In the series on SH-SY5Y cells [1] (setting [5]), the “DQ Spot” value turned out to be 117.48. This compound gave an AK with SH-SY5Y cells [2] of 105.62. Moreover, the “Nuclear Count” value with SH-SY5Y cells [3] came out at 91.70.
In the series on endogenous TFEB, `Cc1ccc(S(=O)(=O)Nc2ccc(Nc3nccc(Nc4cccc5[nH]ncc45)n3)cc2)cc1` [GSK581271] gave a TFEB % of 3.93%. In the series with endogenous TFE3, this compound had a TFE3 % of 6.80%. The “DQ Intensity” value in the series with SH-SY5Y cells [1] (setting [4]) was determined as 132.42. Besides, in the series with SH-SY5Y cells [1] (setting [5]), the “DQ Spot” value came to 120.36. The compound further came in with an AK with SH-SY5Y cells [2] of 89.43. Further, the “Nuclear Count” value in the series on SH-SY5Y cells [3] is reported as 129.24.
As a reminder, the EC50 is the concentration giving half of the maximal effect. For the compound `Cc1cccc(-c2nc(Nc3ccc4ncn(C)c4c3)c3ccccc3n2)n1` [NK173], in the series on endogenous TFE3 (SH-SY5Y), the “Best-Fit Values Span” value was 80.89. In the series with endogenous TFE3 (SH-SY5Y, second EC50 of biphasic/bell-shaped fit or OT (off-target) activity, unit inferred), the EC50 was 1.92 µM. Further, in the series on endogenous TFE3, the Summary result was “Only OT activity”.
Consider `Cc1cccc(-c2nc(Nc3ccc4[nH]ccc4c3)c3ccccc3n2)n1` [NK218], for which the “Best-Fit Values Span” value in the series with endogenous TFE3 (SH-SY5Y) is listed as 20.78. The EC50 in the series on endogenous TFE3 (SH-SY5Y, µM) was 0.42 µM. The Summary result with endogenous TFE3 was “More Potent”.
In the case of `CC(C)c1nc(-c2cccc(NS(=O)(=O)c3ccccc3)c2)c(-c2ccnc(Nc3ccc4c(c3)CN(C)CC4)n2)s1` [UNC10225068A], in the series with endogenous TFE3, the TFE3 % stood at 63.29%. Further, in the series on SH-SY5Y cells [1] (PKIS2 primary screening), the “DQ Intensity” value is reported as 3.98 and the “DQ Spot” value is 39.66. The same compound returned an AK in the series on SH-SY5Y cells [2] of 114.97. Besides, in the series with SH-SY5Y cells [3], the “Nuclear Count” value is 76.87.
For the compound `Cc1cnc(N)c(/C=C/c2cncc(C(=O)NCCc3ccc(Cl)cc3Cl)c2)c1.Cl` [UNC10225238A], the “DQ Intensity” value in the series with SH-SY5Y cells [1] (setting [4]) is 95.52. Besides, the “DQ Spot” value with SH-SY5Y cells [1] (setting [5]) worked out at 99.30.
`C[C@@H](Oc1cc(-n2cnc3cc(-c4cnn(C)c4)ccc32)sc1C(N)=O)c1ccccc1Cl` [UNC10225416A] registered a TFEB % in the series with endogenous TFEB of 18.53%. Moreover, the TFE3 % with endogenous TFE3 was determined as 8.07%. In the series with SH-SY5Y cells [1], the “DQ Intensity” value is given as 219.18 and the “DQ Spot” value was found to be 124.35. This compound yielded an AK in the series on SH-SY5Y cells [2] of 104.83.
As for `CCN(CC)CCCC(C)Nc1ccnc2cc(Cl)ccc12` (stereo not drawn) [chloroquine, reference compound], in the series with endogenous TFEB (setting [6]), the “TFEB translocation from the cytoplasm to the nucleus (% nTFEB)” value is above 80%. For the same compound, the “TFE3 translocation from the cytoplasm to the nucleus (% nTFE3)” value in the series with endogenous TFE3 (setting [6]) is above 80%. For the same compound, in the series on SH-SY5Y cells [1] (SH-SY5Y, 24 h treatment), the “DQ Red BSA signal (in words)” value is given as “greatly reduced” and the “DQ Red BSA spot count / active lysosome count (in words)” value was “reduces”.
